In the supplement of paper PMC10307832:

Assays:
Experiment in all cases: relative viability (nuclei count vs DMSO), 5 days (fraction); higher = more cells survive
[1] = compound: O=C(O)c1ccc2c(c1)nc(Nc1cccc(Cl)c1)c1ccncc12 [Silmitasertib] + CC(=O)Nc1cccc(-n2c(=O)n(C3CC3)c(=O)c3c(Nc4ccc(I)cc4F)n(C)c(=O)c(C)c32)c1 [Trametinib] (partner 0.02 µM)
In short: (§1)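 Lung cancer cell lines were pin-tool dosed in 1536-well plates on the day after seeding, with either a lone drug or a fixed anchor-drug dose plus five library-drug doses (not always all listed) in √10 steps. Nuclei were counted on 4× images after 5 days. Relative viability is the ratio of treated-well to vehicle-well nuclei counts, with each value a median of duplicate plates.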

[2] = compound: O=C(O)c1ccc2c(c1)nc(Nc1cccc(Cl)c1)c1ccncc12 [Silmitasertib] + CS(=O)(=O)N1CCN(Cc2cc3nc(-c4cccc5[nH]ncc45)nc(N4CCOCC4)c3s2)CC1 [Pictilisib] (partner 1 µM)
In short: as §1

[3] = compound: O=C(O)c1ccc2c(c1)nc(Nc1cccc(Cl)c1)c1ccncc12 [Silmitasertib] + C[C@@H](Oc1cc(-c2cnn(C3CCNCC3)c2)cnc1N)c1c(Cl)ccc(F)c1Cl [Crizotinib] (partner 1 µM)
In short: as §1

Silmitasertib + AZD7762 = compound: O=C(O)c1ccc2c(c1)nc(Nc1cccc(Cl)c1)c1ccncc12 [Silmitasertib] + NC(=O)Nc1cc(-c2cccc(F)c2)sc1C(=O)N[C@H]1CCCNC1 [AZD7762] (partner 0.2 µM)
In short: as §1

Silmitasertib + Olaparib = compound: O=C(O)c1ccc2c(c1)nc(Nc1cccc(Cl)c1)c1ccncc12 [Silmitasertib] + O=C(c1cc(Cc2n[nH]c(=O)c3ccccc23)ccc1F)N1CCN(C(=O)C2CC2)CC1 [Olaparib] (partner 8 µM)
In short: as §1

Cell Line | relative viability ([1]; first compound 0.04 µM) | relative viability ([1]; first compound 1.265 µM) | relative viability ([1]; first compound 4 µM) | relative viability ([2]; first compound 0.04 µM) | relative viability ([2]; first compound 1.265 µM) | relative viability ([2]; first compound 4 µM) | relative viability ([3]; first compound 0.04 µM) | relative viability ([3]; first compound 1.265 µM) | relative viability ([3]; first compound 4 µM) | relative viability (Silmitasertib + AZD7762; first compound 0.04 µM) | relative viability (Silmitasertib + AZD7762; first compound 1.265 µM) | relative viability (Silmitasertib + AZD7762; first compound 4 µM) | relative viability (Silmitasertib + Olaparib; first compound 0.04 µM) | relative viability (Silmitasertib + Olaparib; first compound 1.265 µM) | relative viability (Silmitasertib + Olaparib; first compound 4 µM) | relative viability ([1]; first compound 0.4 µM) | relative viability ([2]; first compound 0.4 µM) | relative viability ([3]; first compound 0.4 µM) | relative viability (Silmitasertib + AZD7762; first compound 0.4 µM) | relative viability (Silmitasertib + Olaparib; first compound 0.4 µM)
NCI-H441 | 0.562 | 0.313 | 0.231 | 0.469 | 0.285 | 0.315 | 0.814 | 0.787 | 0.6 | 1.34 | 1.09 | 1.16 | 0.604 | 0.647 | 0.341 |  |  |  |  | 
CAL-12T | 0.444 | 0.394 | 0.284 | 0.532 | 0.34 | 0.232 | 0.685 | 0.542 | 0.318 | 0.656 | 0.805 | 0.77 | 0.688 | 0.561 | 0.531 | 0.3 | 0.394 | 0.423 | 0.7 | 0.465
NCI-H1792 | 0.407 | 0.432 | 0.562 | 0.28 | 0.283 | 0.286 | 0.948 | 0.735 | 0.882 | 0.737 | 0.59 | 0.444 | 0.308 | 0.431 | 0.281 | 0.478 | 0.294 | 0.764 | 0.56 | 0.421
NCI-H1437 | 0.493 | 0.353 | 0.274 | 0.42 | 0.261 | 0.217 | 0.916 | 0.865 | 0.778 | 1.2 | 1.02 | 1.06 | 0.648 | 0.521 | 0.483 | 0.466 |  |  | 1.06 | 0.645
HOP-62 | 0.408 | 0.388 | 0.549 | 0.809 | 0.654 | 0.279 | 0.914 | 0.943 | 0.49 | 0.554 | 0.663 | 0.385 | 0.427 | 0.378 | 0.338 |  |  |  |  | 
EPLC-272H | 0.319 | 0.214 | 0.279 | 0.424 | 0.268 | 0.169 | 0.992 | 0.469 | 0.407 | 0.232 | 0.275 | 0.217 | 1.02 | 0.489 | 0.0904 |  |  |  |  | 0.563
HCC-366 | 0.354 | 0.318 | 0.255 | 0.138 | 0.0849 | 0.141 | 0.581 | 0.472 | 0.395 | 0.254 | 0.371 | 0.147 | 0.396 | 0.373 | 0.387 | 0.337 | 0.137 |  | 0.188 | 0.213
HCC-44 | 1.15 | 1.02 | 1.07 | 0.579 | 0.549 | 0.351 | 0.729 | 0.839 | 0.771 | 0.978 | 1.08 | 0.978 | 0.972 | 1.06 | 1.02 | 0.906 | 0.452 | 0.697 | 1.04 | 0.822
NCI-H23 | 0.439 | 0.365 | 0.36 | 0.54 | 0.38 | 0.26 | 0.51 | 0.384 | 0.362 | 0.29 | 0.344 | 0.165 | 0.351 | 0.272 | 0.251 | 0.323 |  |  | 0.153 | 0.217
